Publication PMC12147034, “Identification of alkynyl nicotinamide HSN748 as a RET solvent-front mutant inhibitor with intracranial efficacy” (RSC Medicinal Chemistry, 2025)
“And” between values parts separate entries of the source, which are not always exact repeats. Equal values may be shown once.

Assays:
[1] = molecular target: T1, B/KR(V804M) cells, KIF5B-RET V804M (Homo sapiens, UniProt P07949+P33176, V804M); assay: Cell viability assay (CellTiter-Glo, 3 days) in B/KR(V804M) cells; assay type: cell-based
T1 construct: FLAG; expressed in transfected cells; host or cells: BaF3
T1 sequence (P07949 713-1063 V804M limits assumed): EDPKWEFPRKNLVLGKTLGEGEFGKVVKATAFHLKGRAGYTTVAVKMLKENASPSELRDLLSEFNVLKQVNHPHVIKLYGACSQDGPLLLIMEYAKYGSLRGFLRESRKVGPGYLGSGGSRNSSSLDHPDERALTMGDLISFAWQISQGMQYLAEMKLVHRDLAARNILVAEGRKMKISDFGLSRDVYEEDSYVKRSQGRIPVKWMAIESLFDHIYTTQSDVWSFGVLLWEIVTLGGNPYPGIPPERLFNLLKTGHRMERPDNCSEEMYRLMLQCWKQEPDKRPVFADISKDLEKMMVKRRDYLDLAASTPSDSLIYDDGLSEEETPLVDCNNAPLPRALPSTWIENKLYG
Experimental: (§1) BaF3 cell lines expressing a flag-tagged KIF5B-RET (B/KR) and the KIF5B-RET containing G810C, G810R, G810S, V804M, V804L mutations were as reported.[8,13,17,21–23] […] Infected cells were cultured for two weeks, and cells with high GFP intensity were sorted into a 96-well plate (1 cell/well). After the expansion of growing cell lines, they were screened for a high level of luciferase activity by luminescence imaging after exposure to D-luciferin. IMR-90 cells were from ATCC.
(§2) The TEL-VEGFR2 cDNA was then subcloned into pLentP lentiviral vector.[21] and BaF3/TEL-VEGFR2 (B/TV) cells were generated by infecting BaF3 cells with the lentiviral TEL-VEGFR2 as described. Cell viability assay was performed using CellTiter-Glo reagent (G7573, Promega, Madison, WI, USA) after 3 days of drug treatment as described for BaF3-derived cells and 5 days for IMR-90 cells.

[2] = tested on: KIF5B-RET autophosphorylation in B/KR and mutant cells; assay: Immunoblotting analysis of cell lysates; assay type: cell-based; settings: Fig. S1A
Text: Figure S1. Immunoblotting analyses of cell lysates.
(A) Immunoblotting analysis of compounds on inhibition of KR or its mutant kinase activity and
induction of apoptosis in B/KR and mutant cells. (B) Immunoblotting analysis of HSN748-treated
(1 picture or pasted object on this page, not shown here)

[3] = molecular target: T2, BaF3/TEL-VEGFR2 (B/TV) cells (Homo sapiens, UniProt P35968+P41212); assay: Cell viability assay (CellTiter-Glo, 3 days) in B/TV cells; assay type: cell-based; settings: TEL-VEGFR2-dependent BaF3 cells, 3 days; read-out: IC50 B/TV WT
T2 construct: fused to VEGFR2 (KDR) amino acids 807–1356; TEL (ETV6) amino acids 1–336 (N-terminal fusion partner); FLAG; expressed in transfected cells; host or cells: BaF3 (lentiviral pLentP TEL-VEGFR2)
T2 sequence (P41212+P35968 fused): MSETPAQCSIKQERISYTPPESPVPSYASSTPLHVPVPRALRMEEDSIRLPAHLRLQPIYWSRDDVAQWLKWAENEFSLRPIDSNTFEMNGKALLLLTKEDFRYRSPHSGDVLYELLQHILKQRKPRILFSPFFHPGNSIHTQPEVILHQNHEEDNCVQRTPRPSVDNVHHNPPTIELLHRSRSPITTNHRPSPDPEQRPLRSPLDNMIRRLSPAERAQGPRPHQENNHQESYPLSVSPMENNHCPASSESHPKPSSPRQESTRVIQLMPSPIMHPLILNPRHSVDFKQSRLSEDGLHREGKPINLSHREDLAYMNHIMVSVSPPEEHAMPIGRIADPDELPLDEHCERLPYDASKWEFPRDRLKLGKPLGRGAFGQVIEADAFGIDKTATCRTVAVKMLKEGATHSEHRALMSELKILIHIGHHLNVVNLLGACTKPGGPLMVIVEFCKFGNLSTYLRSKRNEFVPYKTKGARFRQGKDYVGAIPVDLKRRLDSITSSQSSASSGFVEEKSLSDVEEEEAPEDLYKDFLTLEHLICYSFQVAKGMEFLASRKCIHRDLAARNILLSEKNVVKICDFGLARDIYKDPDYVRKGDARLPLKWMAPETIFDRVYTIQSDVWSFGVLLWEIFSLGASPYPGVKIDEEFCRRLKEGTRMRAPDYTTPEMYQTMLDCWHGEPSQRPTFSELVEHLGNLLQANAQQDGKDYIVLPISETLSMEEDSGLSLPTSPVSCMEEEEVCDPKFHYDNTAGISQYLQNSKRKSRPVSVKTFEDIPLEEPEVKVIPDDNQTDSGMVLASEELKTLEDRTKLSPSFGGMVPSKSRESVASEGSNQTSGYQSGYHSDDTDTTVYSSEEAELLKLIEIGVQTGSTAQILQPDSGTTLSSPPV
Experimental: as §2

[4] = tested on: BaF3/TEL-VEGFR2 (B/TV) cells; assay: as above; assay type: cell-based; settings: ratio of B/TV IC50 to B/KR WT IC50
Experimental: as §2

[5] = molecular target: T3, BaF3/KIF5B-RET (B/KR) cells, RET WT (Homo sapiens, UniProt P07949+P33176); assay: Cell viability assay (CellTiter-Glo, 3 days) in B/KR cells; assay type: cell-based
T3 construct: FLAG; expressed in transfected cells; host or cells: BaF3
T3 sequence (P33176+P07949 with tags, fused parts or gaps): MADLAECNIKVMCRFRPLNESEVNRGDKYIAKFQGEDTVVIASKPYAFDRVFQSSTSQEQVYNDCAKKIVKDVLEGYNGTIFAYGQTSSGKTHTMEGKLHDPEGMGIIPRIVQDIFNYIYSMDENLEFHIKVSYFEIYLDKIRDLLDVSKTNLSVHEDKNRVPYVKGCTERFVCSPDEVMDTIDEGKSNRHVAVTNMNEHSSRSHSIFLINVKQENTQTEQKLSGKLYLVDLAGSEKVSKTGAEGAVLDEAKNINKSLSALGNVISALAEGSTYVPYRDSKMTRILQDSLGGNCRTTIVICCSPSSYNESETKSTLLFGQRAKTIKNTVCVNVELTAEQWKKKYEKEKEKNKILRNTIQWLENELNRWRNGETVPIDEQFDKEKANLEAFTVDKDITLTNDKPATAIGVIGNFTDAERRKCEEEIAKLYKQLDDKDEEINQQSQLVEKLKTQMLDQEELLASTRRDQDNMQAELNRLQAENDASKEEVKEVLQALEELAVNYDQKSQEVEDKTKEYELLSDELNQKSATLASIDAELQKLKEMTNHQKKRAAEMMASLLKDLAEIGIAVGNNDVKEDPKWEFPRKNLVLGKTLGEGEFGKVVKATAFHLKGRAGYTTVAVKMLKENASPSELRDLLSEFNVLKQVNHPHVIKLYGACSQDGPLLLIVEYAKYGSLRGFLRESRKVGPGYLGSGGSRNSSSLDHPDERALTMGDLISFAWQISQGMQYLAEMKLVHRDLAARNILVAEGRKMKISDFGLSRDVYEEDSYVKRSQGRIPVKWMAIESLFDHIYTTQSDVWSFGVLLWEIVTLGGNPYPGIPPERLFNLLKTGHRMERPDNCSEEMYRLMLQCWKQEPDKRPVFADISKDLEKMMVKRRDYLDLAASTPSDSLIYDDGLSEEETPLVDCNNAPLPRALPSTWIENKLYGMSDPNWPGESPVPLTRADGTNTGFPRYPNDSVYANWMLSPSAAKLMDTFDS
Experimental: as §1, §2

[6] = tested on: KIF5B-RET-driven lung tumors; assay: KIF5B-RET-driven lung tumors in C/KR transgenic mice; assay type: in vivo
Experimental: For the HSN748 treatment experiment in CCSP-rtTA/tetO-KIF5B-RET(C/KR) transgenic mice,[16] approximately 2 months old male and female C/KR transgenic mice were fed with rodent chow containing 200 mg kg^−1 doxycycline (Dox Diet, Bio-Serv) for 4 months to induce KIF5B-RET-driven lung tumors. For the HSND19 treatment experiment in C/KR transgenic mice, 3 months old male and female C/KR transgenic mice were induced with doxycycline for 6 months as above and then treated with HSND19 or vehicle by oral gavage as indicated in Fig. 3E. At the endpoint, mouse lungs were collected and either fixed in 10% buffered formalin or snap-frozen in liquid nitrogen as described.[16,27]
For histological assessment of lung tumor burden and response to treatment, sections (4 μm thick) of formalin-fixed paraffin-embedded lung tissues were stained with hematoxylin and eosin (H&E). Two H&E-stained tissue sections that were 5 slides apart were scanned using an Axioscan Zeiss slide scanner at 20X magnification. The scanned lung images were then analyzed with the HALO® image analysis program (v3.6, Indica Labs). The random forest machine learning algorithm of HALO® was used to identify tumor vs. normal area by using the tissue classifier add-on. Tumor and normal areas were classified using normal mouse lungs as the reference. Fibrotic stroma was excluded.

Cc1n[nH]c2ncc(C#Cc3cncc(C(=O)Nc4ccc(CN5CCN(C)CC5)c(C(F)(F)F)c4)c3)cc12 [HSND19, 5-((3-Methyl-1H-pyrazolo[3,4-b]pyridin-5-yl)ethynyl)-N-(4-((4-methylpiperazin-1-yl)methyl)-3-(trifluoromethyl)phenyl)nicotinamide]
IC50 [1]: 6.52 ± 0.45 nM
KIF5B-RET autophosphorylation and apoptosis (immunoblotting) [2]: inhibit KIF5B-RET autophosphorylation and induce apoptosis at low nanomolar concentrations
IC50 [3]: 5.56 ± 1.11 nM
VEGFR2/RET (fold) [4]: 2.85 fold
IC50 [5]: 1.95 ± 0.12 nM
phospho-RET in lung tissue (immunoblotting) ([6]; C/KR transgenic mice): reduced
median lung tumor burden ([6]; HSND19 experiment, 1 month treatment, Dox-induced C/KR mice, vehicle 39%): 4.84%

CCOc1ccc2ncc(C#Cc3cncc(C(=O)Nc4ccc(CN5CCN(C)CC5)c(C(F)(F)F)c4)c3)n2n1 [HSND14, 5-((6-Ethoxyimidazo[1,2-b]pyridazin-3-yl)ethynyl)-N-(4-((4-methylpiperazin-1-yl)methyl)-3-(trifluoromethyl)phenyl)nicotinamide]
IC50 [1]: 20 ± 0.89 nM
KIF5B-RET autophosphorylation and apoptosis (immunoblotting) [2]: inhibit KIF5B-RET autophosphorylation and induce apoptosis at low nanomolar concentrations
IC50 [3]: 6.88 ± 0.15 nM
VEGFR2/RET (fold) [4]: 1.71 fold
IC50 [5]: 4.02 ± 0.19 nM

CN1CCN(Cc2ccc(NC(=O)c3cncc(C#Cc4cnc5cccnn45)c3)cc2C(F)(F)F)CC1 [HSN748]
IC50 [1]: 88 nM and 88.2 nM
KIF5B-RET autophosphorylation and apoptosis (immunoblotting) [2]: inhibit KIF5B-RET autophosphorylation and induce apoptosis at low nanomolar concentrations
IC50 [3]: 7.34 ± 0.09 nM
VEGFR2/RET (fold) [4]: 1.81 fold
IC50 [5]: 4.05 ± 0.18 nM
body weight loss ([6]; C/KR transgenic mice): not observed
phospho-RET in lung tissue (immunoblotting) ([6]; C/KR transgenic mice): suppressed
median lung tumor area ([6]; HSN748 experiment, 1 month treatment, Dox-induced C/KR mice, vehicle 20.1%): 9.2%
